Measurements reported in patent US12213970B2, “Pyridinyl sulfonamide derivatives, pharmaceutical compositions and uses thereof” (Boehringer Ingelheim International GmbH, priority 2018, dated 2025).
Counter-ions that a name gives are not always drawn. Like-named read-outs stand apart in the source and are kept apart here.

How the values were obtained:
AOC2 = target: T1, AOC2 (Homo sapiens, UniProt O75106); assay: AOC2 biochemical assay (Amplex Red)
T1 construct: host or cells: HEK293 cells (transient transfection), cell homogenate
T1 sequence (O75106 1-756): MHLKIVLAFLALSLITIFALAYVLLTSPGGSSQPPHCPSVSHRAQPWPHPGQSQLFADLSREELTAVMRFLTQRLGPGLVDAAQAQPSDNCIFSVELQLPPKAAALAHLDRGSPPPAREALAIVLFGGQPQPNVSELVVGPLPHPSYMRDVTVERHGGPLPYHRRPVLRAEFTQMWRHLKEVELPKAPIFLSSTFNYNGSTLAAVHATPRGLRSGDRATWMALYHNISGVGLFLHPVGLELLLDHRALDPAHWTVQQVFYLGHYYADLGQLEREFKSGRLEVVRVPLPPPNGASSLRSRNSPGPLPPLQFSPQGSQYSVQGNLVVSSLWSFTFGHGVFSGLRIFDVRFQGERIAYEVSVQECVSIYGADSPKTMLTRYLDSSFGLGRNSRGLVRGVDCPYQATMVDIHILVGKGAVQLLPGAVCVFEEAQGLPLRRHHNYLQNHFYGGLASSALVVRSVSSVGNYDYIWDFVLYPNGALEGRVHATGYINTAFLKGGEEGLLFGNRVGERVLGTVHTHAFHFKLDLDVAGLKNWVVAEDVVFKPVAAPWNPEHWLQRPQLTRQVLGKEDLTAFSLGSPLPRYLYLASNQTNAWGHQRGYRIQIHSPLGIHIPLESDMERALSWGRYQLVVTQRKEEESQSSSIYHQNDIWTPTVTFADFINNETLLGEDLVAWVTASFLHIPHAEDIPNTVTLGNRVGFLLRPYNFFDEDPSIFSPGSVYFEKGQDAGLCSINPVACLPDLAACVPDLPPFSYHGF
Procedure: The Amplex® Red Assay (commercially available from Thermo Fisher Scientific) provides a sensitive method for the detection of H2O2 generated during enzymatic reactions like the amine oxidation catalyzed by AOC2. […] An aliquot of 5 μL of the compound dilution is added to a 96 well plate (flat bottom F, black, GREINER bio-one, #655900) in a DMSO concentration of 2%. […] Cells are cultured for 3 days in EMEM culture medium containing 10% FCS (#04-00-1A, Biological Industries). After washing twice with ice cold PBS, cells are lysed by mechanic homogenation and cleared supernatants are shock frozen in liquid nitrogen and stored at -80° C. For the determination of AOC2 enzymatic activity cell lysates are thawed on ice and 1:1 diluted with reaction buffer. An Aliquot of 45 μL is added to the compound dilution and incubated for 30 min at 37° C. The enzymatic reaction is started with the addition of 50 μL of Amplex® Red reaction mix (final assay concentration: 100 mM sodiumphosphate, 120 μM Amplex® Red reagent (#A22177 Molecular Probes), 1.5 U/mL Horseradish Peroxidase (#P8375 Sigma-Aldrich), 2 mM phenylethylamine (#[…] Sigma-Aldrich), 0.05% Pluronic F-127 (#P3000MP Sigma-Aldrich), pH 7.4, 37° C.). The turnover per time of the substrate is determined directly with a fluorescence reader (Ex 540 nm/Em 590 nm) like Envision 2104 Multilabel Reader (PERKIN ELMER) for 60 min. (cf. Anal Biochem (1997) 253:169-174; Anal Biochem (1997) 253:162-168)

AOC1 = target: T2, AOC1 (Homo sapiens, UniProt P19801); assay: AOC1 biochemical assay (Amplex Red)
T2 construct: purchased R&D Systems 8297-AO-010
T2 sequence (P19801 20-751): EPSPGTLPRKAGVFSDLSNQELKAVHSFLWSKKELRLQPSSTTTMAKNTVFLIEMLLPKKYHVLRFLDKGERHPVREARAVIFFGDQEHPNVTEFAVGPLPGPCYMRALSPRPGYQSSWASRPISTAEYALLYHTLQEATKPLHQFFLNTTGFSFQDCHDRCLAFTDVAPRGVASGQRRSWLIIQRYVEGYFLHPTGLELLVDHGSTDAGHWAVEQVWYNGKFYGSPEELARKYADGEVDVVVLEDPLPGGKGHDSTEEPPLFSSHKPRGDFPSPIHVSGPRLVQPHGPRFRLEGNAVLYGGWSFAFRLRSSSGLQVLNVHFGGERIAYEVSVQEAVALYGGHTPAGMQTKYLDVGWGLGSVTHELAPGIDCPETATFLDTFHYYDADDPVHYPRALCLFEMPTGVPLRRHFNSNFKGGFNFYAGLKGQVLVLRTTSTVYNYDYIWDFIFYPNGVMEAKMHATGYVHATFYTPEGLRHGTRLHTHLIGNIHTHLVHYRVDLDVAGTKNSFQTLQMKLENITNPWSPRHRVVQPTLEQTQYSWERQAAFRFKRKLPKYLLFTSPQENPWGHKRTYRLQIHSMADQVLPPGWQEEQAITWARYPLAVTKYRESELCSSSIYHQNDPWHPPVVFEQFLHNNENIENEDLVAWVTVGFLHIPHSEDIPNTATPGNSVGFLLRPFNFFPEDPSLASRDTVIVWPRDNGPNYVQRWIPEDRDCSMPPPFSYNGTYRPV
Procedure: The Amplex® Red Assay (available from Thermo Fisher Scientific) provides a sensitive method for the detection of H2O2 generated during enzymatic reactions like the amine oxidation catalyzed by AOC1. The assay reagent is a colorless substrate (N-acetyl-3,7-dihydroxyphenoxazine) that reacts in a 1:1 stoichiometry with hydrogen peroxide (H2O2) to produce the fluorescent dye resorufin (7-hydroxyphenoxazin-3-one, excitation/emission maxima=570/585 nm).
An aliquot of 3 μL of the compound dilution is added to a 384 well plate (Optiplate, PS, flat bottom F, black, PERKIN ELMER, #6007270) in a DMSO concentration of 6.6%.
An AOC1 enzyme aliquot (#8297-AO-010, R&D Systems) is thawed on ice, diluted in reaction buffer and added in a volume of 7 μL to the wells to give a final assay concentration of 1 ng/well. After incubation of inhibitor and enzyme for 30 minutes at 37° C., the enzymatic reaction is started with the addition of 10 μL of Amplex® Red reaction mix (final assay concentration: 100 mM sodiumphosphate, 120 μM Amplex® Red reagent (#A22177 Molecular Probes), 1.5 U/mL Horseradish Peroxidase (#P8375 Sigma-Aldrich), 200 μM putrescine (#P7505 Sigma-Alrdich), 0.05% Pluronic F-127 (#P3000MP Sigma-Aldrich), pH 7.4, 37° C.).
After an incubation for 30 minutes at 37° C. the turnover of the substrate is determined directly (or after the addition of an excess of an amine-oxidase inhibitor) with a fluorescence reader (Ex 540 nm/Em 590 nm) like Envision 2104 Multilabel Reader (PERKIN ELMER).

Structure (SMILES): CN(C)S(=O)(=O)c1ccc(OC/C(=C\F)CN)cc1 [Compound 10 of WO 2013/163675, reference compound]
- ratio IC50 AOC2/IC50 AOC3 (fold less active against AOC2 as compared to AOC3) (AOC2; AOC2 versus AOC3): ca. 270 fold
- IC50 (AOC2; read-out: IC50 AOC2): 538 nM
- IC50 (AOC1; comparison table, read-out: IC50 AOC1): 963 nM

Structure (SMILES): CNC(=O)[C@H]1[C@@H]2CN(S(=O)(=O)c3ccc(OC/C(=C\F)CN)nc3)C[C@@H]21 [Example 27]
- IC50 (AOC2; read-out: AOC2 IC50): 62 nM
- IC50 (AOC1; read-out: AOC1 IC50): 1260 nM

Structure (SMILES): CNC(=O)[C@@H]1CCN(S(=O)(=O)c2ccc(OC/C(=C\F)CN)nc2)C1 [Example 14]
- IC50 (AOC2; read-out: AOC2 IC50): 203 nM
- IC50 (AOC1; read-out: AOC1 IC50): 2150 nM

Structure (SMILES): NC/C(=C/F)COc1ccc(S(=O)(=O)N2CCC(CC(=O)O)CC2)cn1 [Example 44, trifluoroacetate]
- IC50 (AOC2; read-out: AOC2 IC50): 1 nM
- IC50 (AOC1; read-out: AOC1 IC50): > 50000 nM

Structure (SMILES): CCNC(=O)C1(C)CCN(S(=O)(=O)c2ccc(OC/C(=C\F)CN)nc2)CC1 [Example 23]
- IC50 (AOC2; read-out: AOC2 IC50): 79 nM
- IC50 (AOC1; read-out: AOC1 IC50): > 50000 nM

Structure (SMILES): NC/C(=C/F)COc1ccc(S(=O)(=O)N2CC(C(N)=O)C2)cn1 [Example 20]
- IC50 (AOC2; read-out: AOC2 IC50): 119 nM
- IC50 (AOC1; read-out: AOC1 IC50): 1360 nM

Structure (SMILES): CC(C)(O)CNC(=O)[C@H]1CCN(S(=O)(=O)c2ccc(OC/C(=C\F)CN)nc2)C1 [Example 2]
- IC50 (AOC2; read-out: AOC2 IC50): 272 nM
- IC50 (AOC1; read-out: AOC1 IC50): 8140 nM

Structure (SMILES): COC1CN(S(=O)(=O)c2ccc(OC/C(=C\F)CN)nc2)C1 [Example 33]
- IC50 (AOC2; comparison table, read-out: IC50 AOC2): 55 nM
- IC50 (AOC1; read-out: AOC1 IC50): 1140 nM

Structure (SMILES): NC/C(=C/F)COc1ccc(S(=O)(=O)N2CC[C@H](O)C2)cn1 [Example 43, (S)-1-[6-(Z)-2-Aminomethyl-3-fluoro-allyloxy]-pyridine-3-sulfonyl]-pyrrolidin-3-ol trifluoroacetate]
- IC50 (AOC2; read-out: IC50 AOC2): 210 nM
- IC50 (AOC1; read-out: IC50 AOC1): 964 nM
- factor less active on AOC1 than the comparison compound (AOC1; versus the Z isomer of example 6 of WO 2018/027892): 14

Structure (SMILES): CN1CCN(C2CCN(S(=O)(=O)c3ccc(OC/C(=C\F)CN)nc3)CC2)C1=O [Example 1, 1-{1-[6-((Z)-2-Aminomethyl-3-fluoro-allyloxy)-pyridine-3-sulfonyl]-piperidine-4-yl}-3-methyl-imidazolidin-2-one trifluoroacetate]
- IC50 (AOC2; read-out: AOC2 IC50): 120 nM
- IC50 (AOC1; read-out: AOC1 IC50): 15300 nM

Structure (SMILES): CNC(=O)[C@@H]1[C@@H]2CN(S(=O)(=O)c3ccc(OC/C(=C\F)CN)nc3)C[C@@H]21 [Example 5]
- IC50 (AOC2; read-out: AOC2 IC50): 345 nM
- IC50 (AOC1; read-out: AOC1 IC50): 1220 nM

Structure (SMILES): NC/C(=C/F)COc1ccc(S(=O)(=O)N2CC[C@H](C(=O)N3CCOCC3)C2)cn1 [Example 21]
- IC50 (AOC2; read-out: AOC2 IC50): 101 nM
- IC50 (AOC1; read-out: AOC1 IC50): 4090 nM

Structure (SMILES): CC1(C(=O)NC2CCOCC2)CCN(S(=O)(=O)c2ccc(OC/C(=C\F)CN)nc2)CC1 [Example 48, 1-[6-((Z)-2-Aminomethyl-3-fluoro-allyloxy)-pyridine-3-sulfonyl]-4-methyl-piperidine-4-carboxylic acid (tetrahydropyran-4-yl)-amide trifluoroacetate]
- IC50 (AOC2; read-out: AOC2 IC50): 73 nM
- IC50 (AOC1; read-out: AOC1 IC50): 13000 nM

Structure (SMILES): CC(=O)N[C@H]1CCCN(S(=O)(=O)c2ccc(OC/C(=C\F)CN)nc2)C1 [Example 6]
- IC50 (AOC2; read-out: AOC2 IC50): 285 nM
- IC50 (AOC1; read-out: AOC1 IC50): 678 nM

Structure (SMILES): CNC(=O)C1CCN(S(=O)(=O)c2ccc(OC/C(=C\F)CN)nc2)CC1 [Example 37, trifluoroacetate]
- IC50 (AOC2; read-out: AOC2 IC50): 193 nM
- IC50 (AOC1; read-out: AOC1 IC50): 9880 nM
